Our source for the IC50 values is patent US11702422B2, “Imidazopyridazines as modulators of IL-17” (Janssen Pharmaceutica NV, priority 2020, dated 2023).

Assay [1] deals with IL-17A-induced G-CSF production in human normal keratinocyte (NHK). The assay is described as follows: NHK Assay: IL-17A-induced G-CSF production in human normal keratinocytes. The assay is classed as cell-based. The conditions noted are these: Homo sapiens, Keratinocyte, 24 h, adult normal human keratinocytes, IL-17A 5 ng/mL, simple average if tested more than once. The method in brief:
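IL-17A (5 ng/mL final) was pre-incubated 1 h at rt with titrated compound and then added to adult normal human keratinocytes (5% FBS, 0.2% DMSO) for 24 h at 37° C. Supernatant G-CSF was measured by HTRF against a standard curve to derive IC50. Viability was checked by CellTiter-Glo.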

The target of assay [2] is IL-17A(FLAG-Tagged): IL-17RA(His-Tagged) (Homo sapiens, UniProt Q16552, K93Q). The assay is described as follows: IL-17A(FLAG-Tagged): IL-17RA(His-Tagged) Binding Disruption Eu-HTRF Assay. To be noted: IL-17A/IL-17RA binding disruption, simple average if tested more than once. The essentials: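 IC50 comes from a one-site competition fit of the HTRF 665/620 nm ratio. Compound dilutions (2-fold, 22 points) were held 1 h rt with FLAG-tagged IL-17A dimer, then His-tagged IL-17RA plus Eu-cryptate anti-FLAG and D2 anti-His antibodies were added for 2 h rt.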
UniProt Q16552, sequence (Q16552 with tags, fused parts or gaps K93Q): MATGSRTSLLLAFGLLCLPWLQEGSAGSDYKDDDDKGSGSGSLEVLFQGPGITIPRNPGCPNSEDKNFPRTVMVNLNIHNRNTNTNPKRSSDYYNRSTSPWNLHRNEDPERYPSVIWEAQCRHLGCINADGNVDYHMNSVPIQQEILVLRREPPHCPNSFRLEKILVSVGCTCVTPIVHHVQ

SMILES strings stand for the structures.

For the molecule `CC(C)c1nonc1C(=O)N[C@H](c1cn2ncc([C@H](NC(=O)CC3CC(F)(F)C3)C3CC3)cc2n1)C1CCC(F)(F)CC1` [Example 281, N—((S)-(7-((R)-Cyclopropyl(2-(3,3-difluorocyclobutyl)acetamido)methyl)imidazo[1,2-b]pyridazin-2-yl)(4,4-difluorocyclohexyl)methyl)-4-isopropyl-1,2,5-oxadiazole-3-carboxamide], the IC50 in assay [1] was found to be 26 nM; in assay [2], 24 nM.

Regarding `[2H]C([2H])([2H])C([2H])([2H])n1nccc1C(=O)N[C@H](c1cn2ncc([C@H](NC(=O)CCC(F)F)C3CC3)cc2n1)C1CCC(F)(F)CC1` [Example 282, N—((S)-(7-((R)-Cyclopropyl(4,4-difluorobutanamido)methyl)imidazo[1,2-b]pyridazin-2-yl)(4,4-difluorocyclohexyl)methyl)-1-(ethyl-d5)-1H-pyrazole-5-carboxamide], the IC50 in assay [1] was 420 nM; in assay [2], 160 nM.

Turning to `[2H]C([2H])([2H])n1nccc1C(=O)N[C@H](c1cn2ncc([C@H](NC(=O)CCC(F)F)C3CC3)cc2n1)C1CCC(F)(F)CC1` [Example 283, N—((S)-(7-((R)-Cyclopropyl(4,4-difluorobutanamido)methyl)imidazo[1,2-b]pyridazin-2-yl)(4,4-difluorocyclohexyl)methyl)-1-(methyl-d3)-1H-pyrazole-5-carboxamide], the values for the 50% inhibitory concentration (IC50) in assay [1] and in assay [2] were 690 nM and 310 nM, respectively.

Take `CC(C)Oc1nocc1C(=O)N[C@H](c1cn2ncc([C@H](NC(=O)CCC(F)(F)F)C3CC3)cc2n1)C1CCC(F)(F)CC1` [Example 284, N—((S)-(7-((R)-Cyclopropyl(4,4,4-trifluorobutanamido)methyl)imidazo[1,2-b]pyridazin-2-yl)(4,4-difluorocyclohexyl)methyl)-3-isopropoxyisoxazole-4-carboxamide]: the IC50 turned out to be 920 nM in assay [1] and 220 nM in assay [2].

For `O=C(CCC(F)(F)F)N[C@@H](c1cnn2cc([C@@H](NC(=O)c3conc3OCC(F)F)C3CCC(F)(F)CC3)nc2c1)C1CC1` [Example 285, N—((S)-(7-((R)-Cyclopropyl(4,4,4-trifluorobutanamido)methyl)imidazo[1,2-b]pyridazin-2-yl)(4,4-difluorocyclohexyl)methyl)-3-(2,2-difluoroethoxy)isoxazole-4-carboxamide], the IC50 is 340 nM in assay [1] and 120 nM in assay [2].

Turning to `O=C(CCC(F)F)N[C@@H](c1cnn2cc([C@@H](NC(=O)c3conc3OCC(F)F)C3CCC(F)(F)CC3)nc2c1)C1CC1` [Example 286, N—((S)-(7-((R)-Cyclopropyl(4,4-difluorobutanamido)methyl)imidazo[1,2-b]pyridazin-2-yl)(4,4-difluorocyclohexyl)methyl)-3-(2,2-difluoroethoxy)isoxazole-4-carboxamide], the concentration for half-maximal inhibition (IC50) in assay [1] came to 7500 nM; in assay [2] it was 310 nM.

In the case of `O=C(CCC(F)F)N[C@@H](c1cnn2cc([C@@H](NC(=O)c3conc3COC(F)F)C3CCC(F)(F)CC3)nc2c1)C1CC1` [Example 287, N—((S)-(7-((R)-Cyclopropyl(4,4-difluorobutanamido)methyl)imidazo[1,2-b]pyridazin-2-yl)(4,4-difluorocyclohexyl)methyl)-3-((difluoromethoxy)methyl)isoxazole-4-carboxamide], the IC50 in assay [1] worked out at 410 nM; in assay [2] it was 140 nM.

Take `O=C(CCC(F)F)N[C@@H](c1cnn2cc([C@@H](NC(=O)c3nonc3C3CC3)C3CCC(F)(F)CC3)nc2c1)C1CC1` [Example 288, 4-Cyclopropyl-N—((S)-(7-((R)-cyclopropyl(4,4-difluorobutanamido)methyl)imidazo[1,2-b]pyridazin-2-yl)(4,4-difluorocyclohexyl)methyl)-1,2,5-oxadiazole-3-carboxamide]: the IC50 is 200 nM in assay [1] and 71 nM in assay [2].
